What was measured:
Type in all cases: in vivo
[1] = test system: Spodoptera eridania, 2nd instar larvae, southern armyworm (SAW); experiment: Southern armyworm (SAW) leaf dip test; parameters: key: 0 = no effect; 1 = 10-25% kill; 2 = 26-35% kill; 3 = 36-45% kill; 4 = 46-55% kill; 5 = 56-65% kill; 6 = 66-75% kill; 7 = 76-85% kill; 8 = 86-99% kill; 9 = 100% kill
Outline: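 Ten 2nd instar caterpillars feed on a Sieva lima bean leaf that was dipped 3 seconds in test solution (stock 10,000 ppm in 35% acetone/water, water-diluted). Five days later, larvae are assessed for death, feeding reduction or abnormal molting.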

[2] = test system: Diabrotica undecimpunctata howardi, eggs-southern corn rootworm (SCR-Eggs); experiment: Southern corn rootworm eggs (SCR-Eggs) treated diet test; parameters: key: 0 = no effect; 1 = 10-25% kill; 2 = 26-35% kill; 3 = 36-45% kill; 4 = 46-55% kill; 5 = 56-65% kill; 6 = 66-75% kill; 7 = 76-85% kill; 8 = 86-99% kill; 9 = 100% kill; conditions: mortality after 7 days
Outline: (§1)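 Eggs of S. eridania or D. undecimpunctata howardi were set on artificial diet pretreated with test solution (10,000 ppm stock in 35% aqueous acetone, water dilutions) and dried. Wells were sealed with vented clear covers, and mortality was scored at day 7.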

[3] = test system: Aphis gossypii, cotton aphid (CA); experiment: Cotton aphid (CA) cotyledon dip test; parameters: key: 0 = no effect; 1 = 10-25% kill; 2 = 26-35% kill; 3 = 36-45% kill; 4 = 46-55% kill; 5 = 56-65% kill; 6 = 66-75% kill; 7 = 76-85% kill; 8 = 86-99% kill; 9 = 100% kill; conditions: mortality after 5 days
Outline: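 Mortality was scored 5 days after dipping aphid-infested cotyledons, colonised overnight from a transfer leaf, into water dilutions of a 35% acetone/water compound solution.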

[4] = test system: M. incognita (Root Knot Nematode) larvae; experiment: Evaluation of test compounds against M. incognita larvae in microtiter plate wells (movement score); conditions: larvae scored for movement after 20-24 hours; further: key: A score of '9' indicates inactive worms with a straight, sticklike morphology; A score of '8' indicates inactive worms with a limp, curled or curved morphology; A score of '7' indicates dead/paralyzed worms after 72 hours
Outline: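 Scoring is by larval movement: dead or paralyzed worms count as positive, and a "7" means dead/paralyzed at 72 hours. Freshly hatched root-knot larvae (50-65 per well) in buffered S Medium were incubated with compounds under plate sealers for 20-24 h before the first read.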

[5] = test system: Spodoptera eridania, eggs-southern armyworm (SAW-Eggs); experiment: Southern armyworm eggs (SAW-Eggs) treated diet test; parameters: key: 0 = no effect; 1 = 10-25% kill; 2 = 26-35% kill; 3 = 36-45% kill; 4 = 46-55% kill; 5 = 56-65% kill; 6 = 66-75% kill; 7 = 76-85% kill; 8 = 86-99% kill; 9 = 100% kill; conditions: mortality after 7 days
Outline: as §1

[6] = test system: Diabrotica virgifera virgifera Leconte, 2nd instar western corn rootworm (WCR); experiment: Western corn rootworm (WCR) soil test; parameters: key: 0 = no effect; 1 = 10-25% kill; 2 = 26-35% kill; 3 = 36-45% kill; 4 = 46-55% kill; 5 = 56-65% kill; 6 = 66-75% kill; 7 = 76-85% kill; 8 = 86-99% kill; 9 = 100% kill
Outline: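 Ten 2nd-instar rootworm larvae are placed in jars of moist soil with millet seed and talc treated with 1.25 mg active ingredient (roughly 50 kg/ha) from a 35% acetone-in-water solution. After 5 days mortality is scored, counting missing larvae as dead.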

[7] = test system: Tetranychus urticae (OP-resistant strain), 2-spotted spider mite (TSM); experiment: 2-spotted spider mite (TSM) plant dip test; parameters: key: 0 = no effect; 1 = 10-25% kill; 2 = 26-35% kill; 3 = 36-45% kill; 4 = 46-55% kill; 5 = 56-65% kill; 6 = 66-75% kill; 7 = 76-85% kill; 8 = 86-99% kill; 9 = 100% kill; conditions: mortality after 2 days
Outline: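 Mortality counted 2 days after a 3 s agitated dip of infested Sieva lima bean plants. Compound came from a 10,000 ppm stock in 35% aqueous acetone, with further dilution in water. Each primary leaf carried about 100 OP-resistant mites, allowed to settle ~2 h before dipping.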

[8] = test system: C. elegans (Bristol strain); experiment: Evaluation of test compounds against C. elegans (motility, 96-well plate); parameters: key: 9=complete kill in 4 hours; 8=complete kill in 24 hours; 7=markedly reduced motility in approximately 95% of worms in 24 hours; 0=normal motility, same as controls; conditions: motility at 4 and 24 hours
Outline: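 Activity is a semi-quantitative visual score of adult and larval movement, read at 4 h and 24 h post-immersion at 20 °C after gentle tapping. Worms were suspended in Na buffer in wells where compound, dissolved in 80% acetone, had been evaporated.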

SMILES	SAW (300 ppm) rating [1]	SCR Eggs (1000 ppm) rating [2]	CA (300 ppm) rating [3]	M. incognita (150 ppm) score [4]	SAW Eggs (300 ppm) rating [5]	WCR (50 ppm) rating [6]	TSM (300 ppm) rating [7]	Rating Against C. elegans (150 ppm) [8]
O=C(O)CSC(C[N+](=O)[O-])c1ccc(OC(F)(F)F)cc1 (stereo not drawn) [Example 127]	0	0	0	9	0	0	0	9
O=C(O)CSC(C[N+](=O)[O-])c1cccc([N+](=O)[O-])c1 (stereo not drawn) [Example 128]	0	0	0	9	0	0	0	9
C=CCSC(C[N+](=O)[O-])c1cccc([N+](=O)[O-])c1 (stereo not drawn) [Example 129]	0	0	0	0	0	0	0	0
O=C(O)CSC(C[N+](=O)[O-])c1c(Cl)cccc1Cl (stereo not drawn) [Example 130]	0	0	0	9	0	3 (3 = 36-45% kill)	0	9
COC(=O)CSC(C[N+](=O)[O-])c1c(Cl)cccc1Cl (stereo not drawn) [Example 131]	0	0	0	9	0	0	0	7
CCOC(=O)CSC(C[N+](=O)[O-])c1c(Cl)cccc1Cl (stereo not drawn) [Example 132]	0	9 (9 = 100% kill)	0	0	9 (9 = 100% kill)	0	0	0
CCCOC(=O)CSC(C[N+](=O)[O-])c1c(Cl)cccc1Cl (stereo not drawn) [Example 133]	0	9 (9 = 100% kill)	0	0	0	0	0	0
CCCCOC(=O)CSC(C[N+](=O)[O-])c1c(Cl)cccc1Cl (stereo not drawn) [Example 134]	0	0	0	0	0	0	0	0
O=C(CSC(C[N+](=O)[O-])c1c(Cl)cccc1Cl)OCc1ccccc1 (stereo not drawn) [Example 135]	0	9 (9 = 100% kill)	0	0	0	0	0	0
CCCSC(C[N+](=O)[O-])c1c(Cl)cccc1Cl (stereo not drawn) [Example 136]	0	0	0	0	0	0	0	0
O=[N+]([O-])CC(SCc1ccccc1)c1c(Cl)cccc1Cl (stereo not drawn) [Example 137]	0	9 (9 = 100% kill)	0	0	9 (9 = 100% kill)	0	0	0
COC(=O)CSC(C[N+](=O)[O-])c1cccnc1 (stereo not drawn) [Example 171]	0	0	0	9	0	0	0	7
CCOC(=O)CSC(C[N+](=O)[O-])c1cccnc1 (stereo not drawn) [Example 172]	0	0	0	9	0	0	0	8
CCCCOC(=O)CSC(C[N+](=O)[O-])c1cccnc1 (stereo not drawn) [Example 173]	0	0	0	9	0	0	0	8
O=C(CSC(C[N+](=O)[O-])c1cccnc1)OCc1ccccc1 (stereo not drawn) [Example 174]	0	0	0	9	0	0	0	0

Source: patent US6358883B1, “Pesticidal and parasiticidal use of 1-aryl-1-(substituted thio, sulfinyl and sulfonyl)-2-nitroethane compounds” (American Cyanamid Company, priority 1998, dated 2002)
